According to publication PMC6572376, “N1-Propargylguanosine Modified mRNA Cap Analogs: Synthesis, Reactivity, and Applications to the Study of Cap-Binding Proteins” (Molecules, 2019):

Legend:
murine eIF4E = murine eIF4E (Mus musculus, UniProt P63073); experiment: Pyrene fluorescence intensity competition binding assay for eIF4E
Excerpt: The prime role of the mRNA cap is to participate in initiation of translation through binding with eIF4E. Therefore, we investigated how the substitution at the N1 position influences the interaction between the cap analogs and eIF4E. To this end, we performed binding competition experiments with a Py-labeled m^7GTP analog as previously described. Thence, we determined IC50 values and calculated binding constants values (KD) for the cap analog-eIF4E complexes (Table 1, Figure 2). […] Additionally, the differences identified among studied compounds derived from triphosphate chain modifications were in agreement with previously published results.
A previously described pyrene fluorescence intensity binding method was used to determine the dissociation constants of the nonfluorescent ligands binding to the eIF4E protein in a competitive binding experiment. The experiments were performed in 96-well, black, non-binding assay plates with point fluorescence measurements (λexc = 345 nm; λem = 378 nm). Each well contained a buffer (50 mM Hepes/KOH pH = 7.2 containing 100 mM KCl and 0.5 mM EDTA), 10 nM of pyrene-labeled 7-methylguanosine pentaphosphate probe, ligand 1–5 or m^7Gp3G (half-log dilutions of Clig from 100 μM to 0.003 μM), and 75 nM of eIF4E protein. The reagents and added protein were pre-incubated for 15 min at 30 °C and stirred at 300 rpm. Measurements were performed in three different temperatures: At 20, 30, and 37 °C. A previously derived Equation (1) was used to calculate the inhibition (dissociation) constant KI of a competitive ligand according to the dependence of the recorded fluorescence intensity on the inhibitor concentration. (1) KI=IC50−[Pt]+[PL]50(KD/[L]50+1)/[L]50/KD+[P]0/KD+1 where IC50 is the inhibitor concentration required to replace 50% of the fluorescent probe from the protein binding site, [Pt] is the total protein concentration, [PL]50 is the protein–probe complex concentration at 50% inhibition, [L]50 is the free probe concentration at 50% inhibition, and [P]0 is the free protein concentration without inhibition.
In order to determine IC50 value, we used Origin® 2017 (OriginLab Corp., Northampton, MA, USA) software to fit the curve described by the derived Equation (2) to the measured fluorescence intensity values for various inhibitor concentrations. (2) F=F0Fmax−F0/1+10^(log(IC50)−log(Clig.))p where Clig. is the concentration of non-fluorescent ligand.
Figure 2 Dose–response curves for compounds 1–5 and m^7Gp3G plotted from a competition binding assay for meIF4E [16]. eIF4E (75 nM) and a pyrene-labeled fluorescent probe (10 nM) were incubated at 30 °C with the indicated concentrations of the investigated compounds (1–5 or m^7Gp3G as a reference).

[1] = target: T1, human decapping scavenger enzyme (hDcpS) (Homo sapiens, UniProt Q96C86); experiment: in vitro; conditions: pH 7.6
T1 sequence (Q96C86 1-337): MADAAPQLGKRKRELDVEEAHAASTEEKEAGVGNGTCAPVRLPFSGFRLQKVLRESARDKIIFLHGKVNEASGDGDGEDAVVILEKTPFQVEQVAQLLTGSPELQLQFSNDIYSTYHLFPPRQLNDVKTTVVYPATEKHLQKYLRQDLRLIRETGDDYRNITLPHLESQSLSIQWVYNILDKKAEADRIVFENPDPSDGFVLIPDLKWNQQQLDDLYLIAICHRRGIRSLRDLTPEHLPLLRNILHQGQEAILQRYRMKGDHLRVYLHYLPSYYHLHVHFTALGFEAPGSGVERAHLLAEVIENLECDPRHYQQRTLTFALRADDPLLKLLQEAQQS
Description: (§2) Susceptibility of the new cap analogs to hydrolysis by human decapping scavenger enzyme (hDcpS) was investigated to assess the influence of N1 substitution on cap analogs recognition by DcpS. Caps 1–5 or m^7Gp3G (30 µM each) were incubated with hDcpS (30 nM) at 30 °C. Then, reaction samples were thermally deactivated and analyzed by RP-HPLC.
(§3) Enzymatic reactions with human DcpS were carried out in 50 mM Tris/HCl, 200 mM KCl, 0.5 mM EDTA, pH = 7.6 buffer at 30 °C for 30 nM hDcpS and 30 µM of a cap analog studied. As a control, m^7Gp3G was used. Cap analogs concentration was determined spectrophotometrically (absorption coefficient used in calculations is equal to 22,600 mL/mmol/cm in 0.1 M phosphate buffer pH = 7.0). For 1 and m^7Gp3G, 3 independent experiments were performed. Aliquots were terminated by heat inactivation for 3 min at 95 °C. Samples were analyzed with RP-HPLC using method E.
(§4) Data are average of triplicate experiments ± SD.

[2] = target: T1, human decapping scavenger enzyme (hDcpS); experiment: Susceptibility to hDcpS hydrolysis monitored by RP-HPLC; conditions: 30 µM cap analog, 30 nM hDcpS, 30 °C
Description: as §2, §3, §4

murine eIF4E (meIF4E) = murine eIF4E (meIF4E) (Mus musculus, UniProt P63073); experiment: Microscale thermophoresis direct binding to meIF4E; conditions: MST, 25 nM probe, 25 °C, 1:1 binding model, triplicate
Description: To this end, fluorescent probes (25 nM) were mixed with increasing concentrations of meIF4E and microscale thermophoresis was measured for each sample (Figure S5). Baseline corrected normalized fluorescences (ΔFn) determined from the MST traces were plotted as a function of protein concentration. KD values could then be calculated from the resulting binding curves (Figure 5). […] These findings align with those determined for the parent compounds 1, 2, and 3 (Table 1).
Probes 6, 11, and 12 were dissolved in MST buffer (50 mM HEPES/KOH, 100 mM KCl, 0.5 mM EDTA, pH = 7.2, 0.2% Tween 20) to obtain a 50 nM stock solution. Murine eIF4E (meIF4E) was dissolved in MST buffer in a 16 point, 1:1 dilution series in a 10.0 µM to 0.30 nM concentration range. Equal volumes (10 µL) of meIF4E and probe were combined to obtain the following assay concentrations: 25 nM probe and 5.0 µM to 0.15 nM meIF4E for the assay.
(§1) For both assays, samples were loaded into standard Monolith™ NT.115 Series Capillares (NanoTemper Technologies, Cambridge, MA, USA). MST measurements were performed on Monolith NT.115 instrument (NanoTemper Technologies, Cambridge, MA, USA) at 25 °C. Measurements parameters were set as follows: 40% LED Blue power, Medium MST power. Data were obtained for three independently pipetted measurements and analyzed in PALMIST v. 1.4.4 [36] using a 1:1 binding model to calculate KD, using the signal from an MST-on time of 20 s (for eIF4E assay: Cold region start, −3 s; hot region start, 0.5 s; for DcpS assay: Cold region start, −3 s; hot region start 19 s), confidence intervals were calculated with error surface projection (ESP) method. Plots presented were generated using GUSSI v. 1.4.2 [37].
Figure 5 Direct binding microscale thermophoresis (MST) experiments with eIF4E and DcpS. (a) MST binding curves for probes 6, 11, 12, and meIF4E. Probe 6, 11, or 12 (50 nM) was mixed with a half-log dilution series of an meIF4E solution (10 µM–0.30 nM). (b) MST binding curves for probes 11 and 12 and DcpS. […] Data were analyzed in Palmist v. […]

human DcpS (hDcpS) = target: T2, human DcpS (hDcpS) (Homo sapiens, UniProt Q96C86); experiment: Microscale thermophoresis direct binding to hDcpS; conditions: for Kd: MST, 25 nM probe, 25 °C, 1:1 binding model, triplicate
T2 construct: made in house
T2 sequence (Q96C86 1-337): T1 sequence (Q96C86 1-337)
Description: With these promising results in mind, we decided to use the same approach for studying DcpS enzyme. For this purpose, cleavage-resistant probes 11 and 12 were used. Both probes were high-affinity ligands for DcpS. […] This is in agreement with previously reported data on the influence of triphosphate chain modifications on cap-DcpS interaction.
Probes 11 and 12 were dissolved in MST buffer (50 mM HEPES/KOH, 100 mM KCl, 0.5 mM EDTA, pH = 7.2, 0.2% Tween 20) to obtain a 50 nM stock solution. In study of a probe 11, human DcpS (hDcpS) was dissolved in MST buffer in a 16 point 1:1 dilution series in a 2.0 µM to 0.061 nM concentration range. Equal volumes (10 µL) of hDcpS and the probe were mixed together to obtain the following assay concentrations: 25 nM probe and 1.0 µM to 0.030 nM hDcpS. In study of a probe 12, hDcpS was dissolved in MST buffer in a 16 point 2:1 dilution series in a 700 nM to 1.60 nM concentration range. Equal volumes (10 µL) of hDcpS and the probe were mixed together to obtain the following assay concentrations: 25 nM probe and 350 nM to 0.80 nM hDcpS.
as §1
Figure 5 Direct binding microscale thermophoresis (MST) experiments with eIF4E and DcpS. (a) MST binding curves for probes 6, 11, 12, and meIF4E. […] Data were analyzed in Palmist v. […]

[3] = 30 °C, 75 nM eIF4E, 10 nM pyrene-labeled probe, triplicate
[4] = 30 °C, calculated from IC50 values

Chain of murine eIF4E (meIF4E) (P63073 whole entry): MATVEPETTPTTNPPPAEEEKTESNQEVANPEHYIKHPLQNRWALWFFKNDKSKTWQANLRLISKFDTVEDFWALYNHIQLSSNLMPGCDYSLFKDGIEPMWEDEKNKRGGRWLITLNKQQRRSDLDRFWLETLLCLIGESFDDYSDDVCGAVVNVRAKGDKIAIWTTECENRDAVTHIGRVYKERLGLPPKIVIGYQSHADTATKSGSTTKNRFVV
Chain of murine eIF4E (P63073 whole entry): as above

SMILES | IC50 (murine eIF4E; 20 °C) [nM] | Kd (murine eIF4E; 20 °C, calculated from IC50) [nM] | IC50 (murine eIF4E; [3]) [nM] | Kd (murine eIF4E; [4]) [nM] | IC50 (murine eIF4E; 37 °C) [nM] | Kd (murine eIF4E; 37 °C, calculated from IC50) [nM] | half-life at 30 µM [1] [min] | Susceptibility to hydrolysis by hDcpS ([2]; RP-HPLC) | Kd (murine eIF4E (meIF4E)) [nM] | Fold greater affinity for DcpS than probe 11 (human DcpS (hDcpS); MST KD ratio) [fold] | Kd (human DcpS (hDcpS)) [nM] | Half-life [2] [min]
C#CCn1c(N)nc2c(ncn2C2OC(COP(=O)(O)OP(=O)([O-])OP(=O)(O)OCC3OC(n4c[n+](C)c5c(O)nc(N)nc54)C(O)C3O)C(O)C2O)c1=O (stereo not drawn) [Compound 1, P1-(N1-Propargylguanosin-5′-yl) P3-(N7-methylguanosin-5′-yl) triphosphate] | 2920 ± 190 | 268 ± 40 | 3570 ± 250 | 305 ± 45 | 3680 ± 700 | 371 ± 82 | 15.8 | efficiently cleaved by DcpS but more slowly than m^7Gp3G |  |  |  | 
C#CCn1c(N)nc2c(ncn2C2OC(COP(=O)(O)NP(=O)(O)OP(=O)([O-])OCC3OC(n4c[n+](C)c5c(O)nc(N)nc54)C(O)C3O)C(O)C2O)c1=O (stereo not drawn) [Compound 5, P1-(N7-Methylguanosin-5′-yl) P3-(N1-propargylguanosin-5′-yl) 2,3-imidotriphosphate] | 1850 ± 150 | 168 ± 26 | 2160 ± 200 | 182 ± 29 | 3210 ± 330 | 324 ± 48 |  |  |  |  |  | 
C#CCn1c(N)nc2c(ncn2C2OC(COP(=O)([O-])OP(=O)(O)NP(=O)(O)OCC3OC(n4c[n+](C)c5c(O)nc(N)nc54)C(O)C3O)C(O)C2O)c1=O (stereo not drawn) [Compound 3, P1-(N7-Methylguanosin-5′-yl) P3-(N1-propargylguanosin-5′-yl) 1,2-imidotriphosphate] | 3060 ± 160 | 281 ± 41 | 3480 ± 220 | 297 ± 43 | 3750 ± 890 | 379 ± 100 |  |  |  |  |  | 
C#CCn1c(N)nc2c(ncn2C2OC(COP(=O)(O)CP(=O)(O)OP(=O)([O-])OCC3OC(n4c[n+](C)c5c(O)nc(N)nc54)C(O)C3O)C(O)C2O)c1=O (stereo not drawn) [Compound 4, P1-(N7-Methylguanosin-5′-yl) P3-(N1-propargylguanosin-5′-yl) 2,3-methylenetriphosphate] | 5510 ± 330 | 511 ± 75 | 6040 ± 460 | 520 ± 78 | 8100 ± 610 | 826 ± 109 |  |  |  |  |  | 
C[n+]1cn([C@@H]2O[C@H](COP(=O)(O)NP(=O)(O)OP(=O)([O-])OC[C@H]3O[C@@H](n4cnc5c(=O)n(Cc6cn(CCCNC(=O)c7ccc8c(c7)C(=O)OC87c8ccc(O)cc8Oc8cc(O)ccc87)nn6)c(N)nc54)[C@H](O)[C@@H]3O)[C@@H](O)[C@H]2O)c2nc(N)nc(O)c21 [Compound 12, m^7GpNHppG-N1-5FAM] |  |  |  |  |  |  |  |  | 53 | 2.5 | 14 | 
C[n+]1cn([C@@H]2O[C@H](COP(=O)(O)OP(=O)([O-])OP(=O)(O)OC[C@H]3O[C@@H](n4cnc5c(=O)n(Cc6cn(CCCNC(=O)c7ccc8c(c7)C(=O)OC87c8ccc(O)cc8Oc8cc(O)ccc87)nn6)c(N)nc54)[C@H](O)[C@@H]3O)[C@@H](O)[C@H]2O)c2nc(N)nc(O)c21 [Compound 6, m^7Gp3G-N1-5FAM] |  |  |  |  |  |  |  |  | 50 |  |  | 
Cn1c[n+]([C@@H]2O[C@H](COP(=O)(O)OP(=O)(O)OP(=O)(O)OC[C@H]3O[C@@H](n4cnc5c(=O)[nH]c(N)nc54)[C@H](O)[C@@H]3O)[C@@H](O)[C@H]2O)c2nc(N)[nH]c(=O)c21 [m^7Gp3G, reference compound] | 3040 ± 260 | 279 ± 45 | 3460 ± 300 | 294 ± 46 | 3310 ± 870 | 334 ± 96 |  |  |  |  |  | 5.703
C[n+]1cn([C@@H]2O[C@H](COP(=O)(O)CP(=O)(O)OP(=O)([O-])OC[C@H]3O[C@@H](n4cnc5c(=O)n(Cc6cn(CCCNC(=O)c7ccc8c(c7)C(=O)OC87c8ccc(O)cc8Oc8cc(O)ccc87)nn6)c(N)nc54)[C@H](O)[C@@H]3O)[C@@H](O)[C@H]2O)c2nc(N)nc(O)c21 [Compound 11, m^7GpCH2ppG-N1-5FAM] |  |  |  |  |  |  |  |  | 201 |  | 38 | 
C#CCn1c(N)nc2c(ncn2C2OC(COP(=O)([O-])OP(=O)(O)CP(=O)(O)OCC3OC(n4c[n+](C)c5c(O)nc(N)nc54)C(O)C3O)C(O)C2O)c1=O (stereo not drawn) [Compound 2, P1-(N7-Methylguanosin-5′-yl) P3-(N1-propargylguanosin-5′-yl) 1,2-methylenetriphosphate] | 6570 ± 490 | 610 ± 94 | 6370 ± 730 | 548 ± 95 | 8200 ± 790 | 836 ± 121 |  |  |  |  |  | 
